Measurements as given in patent publication US6376551B1, “Treatment of chronic fatigue syndrome” (Knoll Pharmaceutical Company, priority 1999, dated 2002).

Columns and labels:
[1] = target: [3H]Dopamine reuptake in rat brain tissue; experiment: in vitro [3H]dopamine reuptake inhibition in rat brain tissue; format: biochemical; conditions: means of >3 separate determinations
[2] = target: [3H]Noradenaline reuptake in rat brain tissue; experiment: in vitro [3H]noradrenaline reuptake inhibition in rat brain tissue; format: biochemical; conditions: means of >3 separate determinations

Row | SMILES | Ki [1] [nM] | Ki [2] [nM]
1 | CC(NC(C)(C)C)C(=O)c1cccc(Cl)c1 (stereo not shown) [Bupropion] | 409 | 2590
2 | COc1ccc(C(CN(C)C)C2(O)CCCCC2)cc1 (stereo not shown) [Venlafaxine] | 2590 | 196
